Measurements reported in patent US20260327204A1, “DEGRADERS OF CYCLIN-DEPENDENT KINASE 12/13, COMPOSITIONS, AND USES THEREOF” (ZHEJIANG UNIVERSITY, priority 2023, published 2026).
Like-named read-outs stand apart in the source and are kept apart here.

Tests used:
CDK12 [1] = target: T1, CDK12 (Homo sapiens, UniProt Q9NYV4); test: Reversal of CDK12 degradation by proteasome inhibitor MG132, Western blot; format: cell-based; set-up: endogenous in cells; settings: MDA-MB-231, 24 h treatment, MG132 added 12 h before sample collection
T1 sequence (Q9NYV4 whole entry): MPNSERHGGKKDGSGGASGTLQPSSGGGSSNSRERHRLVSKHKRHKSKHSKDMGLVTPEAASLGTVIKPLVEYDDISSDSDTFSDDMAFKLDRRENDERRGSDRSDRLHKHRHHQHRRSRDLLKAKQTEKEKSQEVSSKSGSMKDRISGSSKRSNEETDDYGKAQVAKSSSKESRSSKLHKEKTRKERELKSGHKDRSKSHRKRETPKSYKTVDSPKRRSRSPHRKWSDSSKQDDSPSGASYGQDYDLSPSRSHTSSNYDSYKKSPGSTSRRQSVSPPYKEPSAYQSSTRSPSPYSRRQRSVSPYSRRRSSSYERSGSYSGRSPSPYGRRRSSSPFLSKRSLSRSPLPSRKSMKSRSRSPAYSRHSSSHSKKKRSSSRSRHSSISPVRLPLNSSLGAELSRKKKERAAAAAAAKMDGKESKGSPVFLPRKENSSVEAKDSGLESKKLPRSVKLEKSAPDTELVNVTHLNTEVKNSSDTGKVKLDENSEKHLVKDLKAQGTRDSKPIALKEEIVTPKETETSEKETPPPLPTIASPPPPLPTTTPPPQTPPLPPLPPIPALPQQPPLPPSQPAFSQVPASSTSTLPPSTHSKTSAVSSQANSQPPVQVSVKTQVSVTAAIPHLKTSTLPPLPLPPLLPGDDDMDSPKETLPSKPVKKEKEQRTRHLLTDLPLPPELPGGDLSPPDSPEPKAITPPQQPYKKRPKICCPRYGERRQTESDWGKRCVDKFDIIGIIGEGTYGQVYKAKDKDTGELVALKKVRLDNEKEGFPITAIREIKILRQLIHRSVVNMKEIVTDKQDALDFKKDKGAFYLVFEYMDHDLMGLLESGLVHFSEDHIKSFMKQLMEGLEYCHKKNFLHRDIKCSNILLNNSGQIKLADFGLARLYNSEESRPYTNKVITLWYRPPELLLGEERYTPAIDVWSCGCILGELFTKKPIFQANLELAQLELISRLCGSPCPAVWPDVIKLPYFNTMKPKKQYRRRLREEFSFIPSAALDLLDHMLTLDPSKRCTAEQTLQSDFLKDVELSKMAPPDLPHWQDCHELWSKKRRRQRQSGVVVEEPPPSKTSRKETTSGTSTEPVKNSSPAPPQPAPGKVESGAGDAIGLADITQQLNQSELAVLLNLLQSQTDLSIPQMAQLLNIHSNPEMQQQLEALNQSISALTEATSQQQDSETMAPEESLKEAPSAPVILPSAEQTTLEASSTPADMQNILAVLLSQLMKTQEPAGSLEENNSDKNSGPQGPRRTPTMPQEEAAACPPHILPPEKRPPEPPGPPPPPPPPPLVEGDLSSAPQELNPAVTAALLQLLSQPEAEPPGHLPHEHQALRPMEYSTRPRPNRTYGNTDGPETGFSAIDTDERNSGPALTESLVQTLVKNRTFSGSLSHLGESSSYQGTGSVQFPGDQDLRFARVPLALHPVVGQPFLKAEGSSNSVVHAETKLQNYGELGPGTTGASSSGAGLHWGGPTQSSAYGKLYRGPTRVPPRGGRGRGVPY
T1 sequence (O75909 whole entry partner): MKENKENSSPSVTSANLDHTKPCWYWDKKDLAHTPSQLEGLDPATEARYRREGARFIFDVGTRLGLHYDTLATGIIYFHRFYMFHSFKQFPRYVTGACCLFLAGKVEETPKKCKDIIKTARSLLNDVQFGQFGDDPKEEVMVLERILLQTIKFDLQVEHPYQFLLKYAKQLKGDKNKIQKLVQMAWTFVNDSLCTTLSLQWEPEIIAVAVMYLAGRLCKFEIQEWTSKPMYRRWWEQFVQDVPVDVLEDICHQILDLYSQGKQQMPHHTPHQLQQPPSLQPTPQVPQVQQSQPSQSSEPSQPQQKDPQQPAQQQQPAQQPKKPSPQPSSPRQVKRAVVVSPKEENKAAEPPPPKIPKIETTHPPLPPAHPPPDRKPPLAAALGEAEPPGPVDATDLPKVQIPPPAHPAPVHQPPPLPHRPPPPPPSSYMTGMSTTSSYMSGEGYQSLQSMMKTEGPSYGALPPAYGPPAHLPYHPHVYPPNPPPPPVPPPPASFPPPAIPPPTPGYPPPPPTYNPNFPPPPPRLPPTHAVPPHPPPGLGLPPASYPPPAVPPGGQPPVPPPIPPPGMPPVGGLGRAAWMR
Protocol: (§1) • Cell lines: HCT-116, Jurkat, or MDA-MB-231 • Culture medium: DMEM/RIPM-1640+10% Hyclone serum • Compound dissolution method: The compounds (small molecule conjugates as shown in Formulae 101-147, MG132) were dissolved in DMSO to prepare a 50 mM stock solution and then diluted to the corresponding concentrations.
(§2) (3) Compound treatment: The 50 mM compound stock solution was diluted with cell culture medium to a final concentration of 0.01 μM-3 μM. Cells were incubated in a 37 °C incubator with 5% CO2 for 3 h-48 h. The DMSO group served as the negative control.

CDK13 [2] = target: T2, CDK13 (Homo sapiens, UniProt Q14004); test: Reversal of CDK13 degradation by proteasome inhibitor MG132, Western blot; format: cell-based; set-up: endogenous in cells; settings: MDA-MB-231, 24 h treatment, MG132 added 12 h before sample collection
T2 sequence (Q14004 whole entry): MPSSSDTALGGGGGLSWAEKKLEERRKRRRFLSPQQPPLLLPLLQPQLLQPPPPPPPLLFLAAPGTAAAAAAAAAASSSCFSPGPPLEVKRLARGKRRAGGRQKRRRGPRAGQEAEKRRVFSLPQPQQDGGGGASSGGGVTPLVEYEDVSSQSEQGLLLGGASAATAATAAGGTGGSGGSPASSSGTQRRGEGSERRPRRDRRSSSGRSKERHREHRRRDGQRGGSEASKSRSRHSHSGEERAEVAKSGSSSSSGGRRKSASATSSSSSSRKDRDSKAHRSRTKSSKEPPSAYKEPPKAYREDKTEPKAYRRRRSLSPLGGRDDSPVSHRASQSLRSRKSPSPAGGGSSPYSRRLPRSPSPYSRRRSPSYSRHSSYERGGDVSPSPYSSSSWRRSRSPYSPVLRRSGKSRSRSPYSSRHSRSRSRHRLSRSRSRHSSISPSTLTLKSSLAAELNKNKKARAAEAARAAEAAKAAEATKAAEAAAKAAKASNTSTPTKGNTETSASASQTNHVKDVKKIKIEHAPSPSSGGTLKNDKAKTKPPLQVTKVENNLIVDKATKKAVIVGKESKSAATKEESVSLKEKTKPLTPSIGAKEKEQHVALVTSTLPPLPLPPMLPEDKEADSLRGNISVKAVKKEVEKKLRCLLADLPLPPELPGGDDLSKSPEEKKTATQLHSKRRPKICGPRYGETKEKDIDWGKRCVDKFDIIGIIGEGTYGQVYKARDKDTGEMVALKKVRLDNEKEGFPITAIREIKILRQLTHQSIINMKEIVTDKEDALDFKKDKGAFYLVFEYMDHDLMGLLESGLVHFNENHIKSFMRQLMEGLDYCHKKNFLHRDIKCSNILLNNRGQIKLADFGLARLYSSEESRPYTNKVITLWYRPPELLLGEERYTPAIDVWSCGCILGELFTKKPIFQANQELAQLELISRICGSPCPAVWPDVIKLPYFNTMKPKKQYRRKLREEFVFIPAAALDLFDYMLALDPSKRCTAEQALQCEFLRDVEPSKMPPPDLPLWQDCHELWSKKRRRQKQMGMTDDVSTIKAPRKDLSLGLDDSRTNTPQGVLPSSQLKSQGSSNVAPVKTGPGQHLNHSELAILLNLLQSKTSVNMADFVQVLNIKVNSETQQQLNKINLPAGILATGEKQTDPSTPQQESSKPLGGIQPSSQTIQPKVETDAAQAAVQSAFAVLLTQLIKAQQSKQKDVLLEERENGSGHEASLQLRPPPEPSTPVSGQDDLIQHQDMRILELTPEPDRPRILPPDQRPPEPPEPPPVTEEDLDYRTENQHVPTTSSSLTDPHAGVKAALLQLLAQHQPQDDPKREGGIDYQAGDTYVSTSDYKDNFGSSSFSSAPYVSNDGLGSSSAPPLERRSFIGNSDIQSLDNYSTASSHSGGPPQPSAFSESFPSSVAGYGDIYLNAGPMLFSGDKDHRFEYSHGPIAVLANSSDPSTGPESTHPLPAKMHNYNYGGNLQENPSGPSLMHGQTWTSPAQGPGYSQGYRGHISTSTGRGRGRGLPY
T2 sequence (O75909 whole entry partner): as the sequence (O75909 whole entry partner) above
Protocol: as §1, §2

hERG channel = target: T3, hERG channel (Homo sapiens, UniProt Q12809); test: Manual patch-clamp of hERG channel currents stably expressed in HEK293 cells; format: cell-based; settings: 0.3 μM-30 μM, HEK293, room temperature
T3 construct: manual patch clamp of tail current
T3 sequence (Q12809 whole entry): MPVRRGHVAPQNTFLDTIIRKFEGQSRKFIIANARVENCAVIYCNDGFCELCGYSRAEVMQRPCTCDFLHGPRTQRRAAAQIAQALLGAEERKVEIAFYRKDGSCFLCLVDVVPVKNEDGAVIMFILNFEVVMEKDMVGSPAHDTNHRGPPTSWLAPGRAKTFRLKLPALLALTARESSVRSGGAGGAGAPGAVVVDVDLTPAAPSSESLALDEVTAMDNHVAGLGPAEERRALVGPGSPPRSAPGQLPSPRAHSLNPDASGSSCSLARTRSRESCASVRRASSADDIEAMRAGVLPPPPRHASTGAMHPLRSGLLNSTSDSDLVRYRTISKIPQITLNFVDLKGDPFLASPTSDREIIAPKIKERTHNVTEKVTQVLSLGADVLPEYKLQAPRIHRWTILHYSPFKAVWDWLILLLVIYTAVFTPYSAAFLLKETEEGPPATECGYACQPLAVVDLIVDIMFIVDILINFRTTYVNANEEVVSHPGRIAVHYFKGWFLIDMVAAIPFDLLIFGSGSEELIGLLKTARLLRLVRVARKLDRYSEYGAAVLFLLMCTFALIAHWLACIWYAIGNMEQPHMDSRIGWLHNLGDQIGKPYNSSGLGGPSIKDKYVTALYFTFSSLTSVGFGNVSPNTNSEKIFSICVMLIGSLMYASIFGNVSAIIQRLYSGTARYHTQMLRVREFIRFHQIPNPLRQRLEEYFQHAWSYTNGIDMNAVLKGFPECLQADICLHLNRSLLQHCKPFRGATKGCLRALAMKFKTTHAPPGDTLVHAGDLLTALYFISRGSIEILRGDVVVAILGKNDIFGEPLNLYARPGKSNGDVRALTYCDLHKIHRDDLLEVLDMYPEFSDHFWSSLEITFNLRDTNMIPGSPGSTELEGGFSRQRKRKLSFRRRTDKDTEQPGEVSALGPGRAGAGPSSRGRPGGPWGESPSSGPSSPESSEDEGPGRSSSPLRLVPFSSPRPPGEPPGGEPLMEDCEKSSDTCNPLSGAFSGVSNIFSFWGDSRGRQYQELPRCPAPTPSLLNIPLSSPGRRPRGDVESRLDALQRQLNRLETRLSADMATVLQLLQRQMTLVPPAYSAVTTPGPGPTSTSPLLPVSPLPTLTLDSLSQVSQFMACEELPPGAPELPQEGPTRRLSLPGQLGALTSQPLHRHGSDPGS
Protocol: III. Manual Patch-Clamp Detection of the Effect of Compounds on hERG Channel Currents Stably Expressed in HEK293 Cells
A 30 mM stock solution of compound 147 was prepared in DMSO. The stock solution was serially diluted with DMSO to prepare secondary stock solutions of 10 mM, 3 mM, 1 mM, and 0.3 mM. 10 μL of the secondary stock solution was diluted in 10 mL of extracellular solution to prepare final concentrations of 30 μM, […], 3 μM, 1 μM, and 0.3 μM for electrophysiological detection. A 10 mM stock solution of the positive control, cisapride, was prepared in DMSO. The stock solution was serially diluted with DMSO to prepare secondary stock solutions of 1000 μM, 100 μM, 10 μM, 1 μM, and 0.1 μM. 10 μL of the secondary stock solution was diluted in 10 mL of extracellular solution to prepare final concentrations of 1000 nM, 100 nM, 10 nM, 1 nM, and 0.1 nM for electrophysiological detection. […]
d. […] The current was recorded once every 15 s.
e. The hERG potassium channel current was recorded at room temperature before drug addition. […]
The original data hERG tail current peak values were extracted from the PatchMaster software. The current inhibition rate was calculated using the following formula:
The mean and standard error were calculated for each concentration. […]

CDK13 [3] = target: T2, CDK13; test: Western blot degradation of CDK13 (Example 3); format: cell-based; set-up: degradation of CDK12/13 protein in leukemia cells KASUMI-1, MV4-11, and Jurkat; endogenous in cells
CCNK = test: Reversal of CCNK degradation by proteasome inhibitor MG132, Western blot; format: cell-based; settings: MDA-MB-231, 24 h treatment, MG132 added 12 h before sample collection
Protocol: as §1, §2
In the figures, CDK12, CDK13, and CCNK are the target proteins under study, and β-Actin and GAPDH are the internal reference proteins. Internal reference proteins are used to indicate the total protein amount in each experimental group for quantitative analysis.

[4] = In vivo pharmacokinetics in mice; settings: mouse, plasma, ip, 30 mg/kg, intraperitoneal
CDK12 [5] = target: T1, CDK12; test: Western blot degradation of CDK12 (Example 3); format: cell-based; set-up: degradation of CDK12/13 protein in leukemia cells KASUMI-1, MV4-11, and Jurkat; endogenous in cells
[6] = test system: tumor cells MDA-MB-231, MV4-11, and KASUMI-1 and normal cells L-02 and HK-2; test: Survival of tumor and normal cells (CCK8 / SRB); format: cell-based; settings: 72 h, concentration gradient, FIG. 10
Protocol: The proliferation inhibition of compounds on leukemia cell lines MV4-11 and KASUMI-1 was determined using the CCK8 assay, while the inhibition on solid tumor cell lines MDA-MB-231 was determined using the Sulforhodamine B (SRB) assay.
CCK8 Assay: First, MV4-11 and KASUMI-1 cells were seeded in a 96-well plate at a density of 5,000 cells per well. Then, a concentration gradient (0.03 μM-10 μM) of the compounds was administered for 72 h, with DMSO solvent serving as the negative control. At the end of the treatment, 10 μL of CCK8 reagent was added to each well. The plate was incubated for 4 hours at 37 °C in the dark. After mixing, the absorbance value was measured at 450 nm.
SRB Assay: First, MDA-MB-231, L-02, and HK-2 cells were seeded in a 96-well plate at a density of 3,000 cells per well. After 8-12 h of cell adhesion, a concentration gradient (62.5 nM-10 μM) of the compounds was administered for 72 h, with DMSO solvent serving as the negative control. At the end of the treatment, the cells were washed once with 70 μL of PBS, then fixed with 70 μL of 10% trichloroacetic acid at 4 °C for 1 h. After rinsing with tap water and drying in an oven, 70 μL of SRB staining solution was added to each well for 20 min at room temperature. […] Finally, 150 μL of 10 mM Tris-base dissolving solution was added, and the plate was shaken for 15 min before the absorbance value was measured at 540 nm.

| Compound | reversal of CDK12 degradation by MG132 (CDK12 [1]) | reversal of CDK13 degradation by MG132 (CDK13 [2]) | inhibitory effect on the hERG channel (hERG channel) | DC50 (CDK13 [3]; DC50 classes, cell line not given, read-out: CDK13 degradation Activity) [nM] | DC50 (CDK13 [3]; HCT116, colorectal cancer cells, read-out: CDK13 DC50) [nM] | DC50 (CDK13 [3]; KASUMI-1, leukemia cells, read-out: CDK13 DC50) [nM] | DC50 (CDK13 [3]; MDA-MB-231, breast cancer cells, read-out: CDK13 DC50) [nM] | reversal of CCNK degradation by MG132 (CCNK) | half-life [4] [h] | DC50 (CDK12 [5]; DC50 classes, cell line not given, read-out: CDK12 degradation Activity) [nM] | DC50 (CDK12 [5]; HCT116, colorectal cancer cells, read-out: CDK12 DC50) [nM] | DC50 (CDK12 [5]; KASUMI-1, leukemia cells, read-out: CDK12 DC50) [nM] | DC50 (CDK12 [5]; MDA-MB-231, breast cancer cells, read-out: CDK12 DC50) [nM] | proliferation inhibitory activity on normal and tumor cells [6] |
| --- | --- | --- | --- | --- | --- | --- | --- | --- | --- | --- | --- | --- | --- | --- |
| CC(=O)N(c1ccc(-c2ccc(N3CCN(CC(=O)N[C@H](C(=O)N4C[C@H](O)C[C@H]4C(=O)N[C@@H](C)c4ccc(-c5scnc5C)cc4)C(C)(C)C)CC3)nc2)cc1)[C@H]1CC[C@H](Nc2ncc3ccccc3n2)CC1 [Formula 147, (2S,4R)-1-((S)-3,3-dimethyl-2-(2-(4-(5-(4-(N-((1R,4R)-4-(quinazolin-2-ylamino)cyclohexyl)acetamido)phenyl)pyridin-2-yl)piperazin-1-yl)acetamido)butanoyl)-4-hydroxy-N—((S)-1-(4-(4-methylthiazol-5-yl)phenyl)ethyl)pyrrolidine-2-carboxamide] | can reverse the degradation of CDK12/13 and CCNK | can reverse the degradation of CDK12/13 and CCNK | weak or no inhibitory effect on the hERG channel | < 100 | 15 | 10 | 9 | can reverse the degradation of CDK12/13 and CCNK | 2.58 | < 100 | 13 | 17 | 15 | – |
| CN(C)C/C=C/C(=O)Nc1ccc(C(=O)N2CCC[C@@H](Nc3ncc(Cl)c(-c4c[nH]c5ccccc45)n3)C2)cc1 [THZ-531] | – | – | – | – | – | – | – | – | – | – | – | – | – | indiscriminate proliferation inhibitory activity on both normal and tumor cells |
